Literature values, collected in patent publication US8614315B2, “Cefdinir and cefixime formulations and uses thereof” (priority 2010, dated 2013).

What was measured:
[1] = not given; remark: listed apart in the source
[2] = pH 3.2, room temperature

Compound	solubility in water, methanol, ethanol, acetone and many other organic solvents	solubility in ethanol and acetone ([1]; ethanol, acetone)	solubility in ether, ethyl acetate, hexane and water ([1]; ether, ethyl acetate, hexane, water)	solubility in methanol and propylene glycol ([1]; methanol, propylene glycol)	solubility in a solution with a pH value of 3.2 [2]
C=CC1=C(C(=O)O)N2C(=O)[C@@H](NC(=O)/C(=N\O)c3csc(N)n3)[C@H]2SC1 [Cefdinir, (6R,7R)-7-[[(2Z)-(2-amino-4-thiazolyl)(hydroxyimino)acetyl]amino]-3-ethenyl-8-oxo-5-thia-1-azabicyclo[4.2.0]oct-2-en-2-carboxylic acid]	poor solubility				
C=CC1=C(C(=O)O)N2C(=O)[C@@H](NC(=O)/C(=N\OCC(=O)O)c3csc(N)n3)[C@H]2SC1 [Cefixime, (6R,7R)-7-{[2-(2-amino-1,3-thiazol-4-yl)-2-(carboxymethyloxyimino)acetyl]amino}-3-ethenyl-8-oxo-5-thia-1-azabicyclo [4.2.0]oct-2-en-2-carboxylic acid]		partially soluble	does not dissolve	freely soluble	0.5 mg/mL
